Laboratory results from PubChem BioAssay (NCI).
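Assay format: 96-well plates, 48-hour exposure. Here, GI50 denotes the concentration required for 50% inhibition of growth. TGI denotes the concentration required for complete inhibition of growth.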

Legend:
Assay in all cases: NCI-60 cell line screen, 48 h
[1] = tested on: 786-0 renal
[2] = tested on: A498 renal
[3] = tested on: A549 NSCLC
[4] = tested on: ACHN renal
[5] = tested on: CAKI-1 renal
[6] = tested on: CCRF-CEM leukemia
[7] = tested on: COLO 205 colon
[8] = tested on: DU-145 prostate
[9] = tested on: EKVX NSCLC
[10] = tested on: HCC-2998 colon
[11] = tested on: HCT-116 colon
[12] = tested on: HCT-15 colon
[13] = tested on: HL-60(TB) leukemia
[14] = tested on: HOP-62 NSCLC
[15] = tested on: HOP-92 NSCLC
[16] = tested on: HS 578T breast
[17] = tested on: HT29 colon
[18] = tested on: IGROV1 ovarian
[19] = tested on: K-562 leukemia
[20] = tested on: KM12 colon
[21] = tested on: LOX IMVI melanoma
[22] = tested on: M14 melanoma
[23] = tested on: MALME-3M melanoma
[24] = tested on: MCF7 breast
[25] = tested on: MDA-MB-231 breast
[26] = tested on: MDA-MB-435
[27] = tested on: MOLT-4 leukemia
[28] = tested on: NCI-H23 lung
[29] = tested on: NCI-H460 lung
[30] = tested on: NCI-H522 lung
[31] = tested on: NCI/ADR-RES ovarian
[32] = tested on: OVCAR-3 ovarian
[33] = tested on: OVCAR-4 ovarian
[34] = tested on: OVCAR-5 ovarian
[35] = tested on: OVCAR-8 ovarian
[36] = tested on: PC-3 prostate
[37] = tested on: RPMI-8226 leukemia
[38] = tested on: RXF 393 renal
[39] = tested on: SF-268 CNS
[40] = tested on: SF-295 CNS
[41] = tested on: SF-539 CNS
[42] = tested on: SK-MEL-2 melanoma
[43] = tested on: SK-MEL-28 melanoma
[44] = tested on: SK-MEL-5 melanoma
[45] = tested on: SK-OV-3 ovarian
[46] = tested on: SN12C renal
[47] = tested on: SNB-19 CNS
[48] = tested on: SNB-75 CNS
[49] = tested on: SR leukemia
[50] = tested on: SW-620 colon
[51] = tested on: T-47D breast
[52] = tested on: TK-10 renal
[53] = tested on: U251 CNS
[54] = tested on: UACC-257 melanoma
[55] = tested on: UACC-62 melanoma
[56] = tested on: UO-31 renal

With CC/C=C\C/C=C/C=C1/C(=O)C=C[C@@H]1C/C=C\CCCC(=O)OC the GI50 [1] was 2.71 µM, the TGI [1] was 6.91 µM and the GI50 [2] was 8.68 µM. For the same compound, the TGI [2] was 23 µM, the GI50 [3] was 5.71 µM and the TGI [3] was 52.6 µM. It also gave a GI50 [4] of 1.97 µM, a TGI [4] of 3.99 µM and a GI50 [5] of 3.22 µM. It also gave a TGI [5] of 10.7 µM, a GI50 [6] of 1.25 µM and a TGI [6] of 8.7 µM. For the same compound, the GI50 [7] was 2.14 µM, the TGI [7] was 5.23 µM and the GI50 [8] was 4.55 µM. For the same compound, the TGI [8] was 17.4 µM, the GI50 [9] was 3.89 µM and the TGI [9] was 20.1 µM. For the same compound, the GI50 [10] was 2.03 µM, the TGI [10] was 3.62 µM and the GI50 [11] was 0.631 µM. The TGI [11] was 2.43 µM, the GI50 [12] was 2.2 µM and the TGI [12] was 7.89 µM. For the same compound, the GI50 [13] was 2.24 µM, the TGI [13] was 12.5 µM and the GI50 [14] was 2.45 µM. The TGI [14] was 5.73 µM, the GI50 [15] was 3.07 µM and the TGI [15] was 8.49 µM. It also gave a GI50 [16] of 15.1 µM, a TGI [16] greater than 100 µM and a GI50 [17] of 2.21 µM. The TGI [17] was 5.57 µM, the GI50 [18] was 2.95 µM and the TGI [18] was 10.2 µM. For the same compound, the GI50 [19] was 1.38 µM, the TGI [19] was 20.9 µM and the GI50 [20] was 2.24 µM. It also gave a TGI [20] of 6.59 µM, a GI50 [21] of 0.417 µM and a TGI [21] of 1.79 µM. The GI50 [22] was 3.22 µM, the TGI [22] was 11.8 µM and the GI50 [23] was 2.5 µM. It also gave a TGI [23] of 6.64 µM, a GI50 [24] of 0.5 µM and a TGI [24] of 12.5 µM. It also gave a GI50 [25] of 3.55 µM, a TGI [25] of 11.3 µM and a GI50 [26] of 2.05 µM. For the same compound, the TGI [26] was 5.08 µM, the GI50 [27] was 1.36 µM and the TGI [27] was 11.2 µM. The GI50 [28] was 1.9 µM, the TGI [28] was 4.45 µM and the GI50 [29] was 3.07 µM. For the same compound, the TGI [29] was 8.85 µM, the GI50 [30] was 1.78 µM and the TGI [30] was 4.24 µM. It also gave a GI50 [31] of 3.32 µM, a TGI [31] greater than 100 µM and a GI50 [32] of 1.54 µM. It also gave a TGI [32] of 6.35 µM, a GI50 [33] of 4.24 µM and a TGI [33] of 17.3 µM. For the same compound, the GI50 [34] was 3.32 µM, the TGI [34] was 11.1 µM and the GI50 [35] was 2.75 µM. For the same compound, the TGI [35] was greater than 100 µM, the GI50 [36] was 2.44 µM and the TGI [36] was 7.1 µM. It also gave a GI50 [37] of 2.46 µM, a TGI [37] of 12.8 µM and a GI50 [38] of 1.94 µM. It also gave a TGI [38] of 3.84 µM, a GI50 [39] of 3.81 µM and a TGI [39] of 24.7 µM. It also gave a GI50 [40] of 3.5 µM, a TGI [40] of 14 µM and a GI50 [41] of 3.04 µM. For the same compound, the TGI [41] was 10 µM, the GI50 [42] was 3.35 µM and the TGI [42] was 12.5 µM. It also gave a GI50 [43] of 2.33 µM, a TGI [43] of 6.42 µM and a GI50 [44] of 1.99 µM. The TGI [44] was 4.05 µM, the GI50 [45] was 9.25 µM and the TGI [45] was 49.9 µM. For the same compound, the GI50 [46] was 2.7 µM, the TGI [46] was 7.79 µM and the GI50 [47] was 5.06 µM. It also gave a TGI [47] of 19.3 µM, a GI50 [48] of 25 µM and a TGI [48] greater than 100 µM. The GI50 [49] was 0.398 µM, the TGI [49] was 15.5 µM and the GI50 [50] was 1.11 µM. For the same compound, the TGI [50] was 7.68 µM, the GI50 [51] was 3.9 µM and the TGI [51] was 24 µM. The GI50 [52] was 4.13 µM, the TGI [52] was 15.4 µM and the GI50 [53] was 2.35 µM. It also gave a TGI [53] of 6.83 µM, a GI50 [54] of 3.27 µM and a TGI [54] of 11.4 µM. The GI50 [55] was 2.24 µM, the TGI [55] was 5.17 µM and the GI50 [56] was 1.64 µM. It also gave a TGI [56] of 3.6 µM.
